Laboratory results reported in patent US5892071A, “Cationic transport reagents” (The Reagents of The University of California, priority 1995, dated 1999).
Blank lines part the entries; values can stand above or below the compound they belong to.

Columns and labels:
NIH 3T3 fibroblasts = test: Hydrophobic and polar domain transfection analysis of PolyGum derivatives (luciferase specific activity, pGL3I+); assay type: cell-based, Murine; conditions: for transfection effectiveness ranking among methoxy PolyGum derivatives: 1 microgram plasmid DNA pGL3I+, 48 hours (FIG. 9)
Experimental: (§1) Transfection activity was measured using the luciferase assay. Luciferase assays were performed with a luciferase assay kit (purchased from Analytical Luminescence Laboratories) using a Monolight 2010 luminometer (Analytical Luminescence Laboratories, San Diego, Calif.) according to the manufacturer's instructions. The media was removed from the transfected cells via aspiration. 0.5 mL of luciferase buffer/well was added, and the cells were placed on ice for 15 min. Luciferase light emissions from 100 μl of the lysate were measured using the luminometer.
Shown in FIG. 9 are hydrophobic and polar domain transfection results for various synthesized PolyGum derivatives. In the tests, 1.0×10^5 NIH 3T3 fibroblasts were plated 24 hours prior to transfection. Cell lysates were obtained 48 hours after transfection and assayed for luciferase specific activity. The data presented in FIG. 9 corresponds to the ability of the subject cationic lipid to mediated delivery of 1 microgram of plasmid DNA (pGL3I+).

NIH 3T3 cells = test: Luciferase transfection assay (pCMVL plasmid), NIH 3T3 cells; assay type: cell-based, Murine
Experimental: NIH 3T3 cells were grown in Dulbecco's modified Eagles medium (DMEM)+10% fetal calf serum. The DNA plasmid pCMVL was prepared by standard methods and used as a 369 ng/μl solution in TE, pH=7.6. The luciferase reporter plasmid pCMVL was prepared at UC Davis, and consists of the P. pyralis luciferase cDNA subcloned into the plasmid pRc/CMV (Invitrogen).
Multilamellar and small sonicated vesicles were prepared by addition of the cationic lipid DOHME together with DOPE, both as solutions in chloroform, to a 5 mL sample vial. The chloroform was removed via rotary evaporation with the water bath set at a constant temperature of 37° C. The resulting thin lipid films were placed under high vacuum overnight to insure that all traces of solvent had been removed. The lipid mixture was resuspended using distilled water ([…] total lipid/1 mL water) and vortex mixed to give a suspension of MLVs. This cloudy suspension was sonicated for fifteen minutes using a bath sonicator until a clear suspension containing SVs was obtained.
Sequential addition of DMEM (with or without 10% fetal calf serum), pCMVL plasmid (for n=4, 4 μg), and liposome formulation into a 2 mL Eppendorf tube gave a total volume of 800 μl. The relative amount of liposome:pCMVL plasmid used was determined by the desired cationic lipid:DNA phosphate charge ratio. The mixing of these substances was followed by thorough vortexing.
Usually, 24 well tissue culture plates containing 5.0×10^4 cells/well rapidly dividing adherent NIH 3T3 cells per well were transfected. The growth media was removed via aspiration and the cells were washed once with 0.5 mL PBS/well. […]
as §1, with “The media was removed from the transfected cells via aspiration. 0.5 mL of luciferase buffer/well was added, and the cells were placed on ice for 15 min.” left out

transfected cells = test: Alamar Blue toxicity assay; assay type: cell-based
Experimental: Usually, 24 well tissue culture plates containing 5.0×10^4 cells/well rapidly dividing adherent NIH 3T3 cells per well were transfected. The growth media was removed via aspiration and the cells were washed once with 0.5 mL PBS/well. A 200 μl aliquot of liposome-DNAcomplex was added to each well and the cells were allowed to incubate for 4 hr. at 37° C. If desired, at this time, 1 mL of DMEM+10% fetal calf serum/well was added and the cells were allowed to incubate for an additional 48 hr, after which assays of toxicity and/or efficacy were performed. Equivalent procedures were utilized for the DU-145 cells.
Alamar blue (Alamar Biosciences, Sacramento, Calif.), was diluted in cell culture media to 10%, added to cells, and incubated for up to two hours. Reduced dye was quantitated using a CytoFluor 2300 fluorescence plate reader with a 530 nm excitation filter and a 590 nm emission filter. Values expressed represent fluorescence less background. The same transfected cells can subsequently be assayed for reporter protein activity after Alamar Blue analysis.

- transfection effectiveness ranking among methoxy PolyGum derivatives (NIH 3T3 fibroblasts): least effective in transfection
SMILES: CCCCCCCCCCCC(=O)OC(C[N+](C)(C)CCOC)C(C[N+](C)(C)CCOC)OC(=O)CCCCCCCCCCC (racemic) [DL-PG-Me]

SMILES: CCCCCCCCCCCCCC(=O)OC(C[N+](C)(C)CCOC)C(C[N+](C)(C)CCOC)OC(=O)CCCCCCCCCCCCC (centres unmarked) [DM-PG-Me]
- transfection efficiency, methoxy versus non-methoxy form (NIH 3T3 fibroblasts; DM-PG-Me versus DM-PG-OH (FIG. 9)): more efficient in transfection than the non-methoxy form

- transfection effectiveness ranking among methoxy PolyGum derivatives (NIH 3T3 fibroblasts): most effective in transfection
SMILES: CCCCCCCCCCCCCCCC(=O)OC(C[N+](C)(C)CCOC)C(C[N+](C)(C)CCOC)OC(=O)CCCCCCCCCCCCCCC (centres unmarked) [DP-PG-Me]

SMILES: CCCCCCCC/C=C\CCCCCCCC(=O)OC(C[N+](C)(C)CCO)C(C[N+](C)(C)CCO)OC(=O)CCCCCCC/C=C\CCCCCCCC.[I-].[I-] (centres unmarked) [PolyGum, N,N,N',N'-tetramethyl-N,N'-bis(2-hydroxyethyl)-2,3-di(oleoyloxy)-1,4-butanediaminium iodide]
- effect of serum on PolyGum (MLV) mediated transfection (NIH 3T3 cells; MLV, serum-free versus 10% calf serum (FIG. 3)): greatly increased transfection is found with serum-free conditions than in the presence of 10% calf serum
- efficiency of transfection as mole ratio of DOPE to PolyGum is increased (NIH 3T3 cells; SV, serum-free (FIG. 5)): the efficiency of transfection is lowered in a generally linear fashion
- effect of serum on PolyGum mediated transfection under other transfection conditions (NIH 3T3 cells; other transfection conditions, with serum): little change is noted with serum transfection
- toxicity versus LIPOFECTIN and several other amine containing vesicles (transfected cells; PolyGum MLV formulation): less toxicity
- toxicity versus LIPOFECTIN and several other amine containing vesicles (transfected cells; PolyGum SV formulation): less toxicity
